Results taken from patent publication US6255317A, “Cholesterol biosynthesis inhibitors” (Hanwha Chemical Corporation, priority 1998, dated 2001).

Target: T1, sterol 14-reductase (Rattus norvegicus, UniProt A0ACM8Q6X4)
T1 construct: to give a microsome which was used as an enzyme source of sterol 14-reductase; from tissue
T1 sequence (A0ACM8Q6X4 1-418): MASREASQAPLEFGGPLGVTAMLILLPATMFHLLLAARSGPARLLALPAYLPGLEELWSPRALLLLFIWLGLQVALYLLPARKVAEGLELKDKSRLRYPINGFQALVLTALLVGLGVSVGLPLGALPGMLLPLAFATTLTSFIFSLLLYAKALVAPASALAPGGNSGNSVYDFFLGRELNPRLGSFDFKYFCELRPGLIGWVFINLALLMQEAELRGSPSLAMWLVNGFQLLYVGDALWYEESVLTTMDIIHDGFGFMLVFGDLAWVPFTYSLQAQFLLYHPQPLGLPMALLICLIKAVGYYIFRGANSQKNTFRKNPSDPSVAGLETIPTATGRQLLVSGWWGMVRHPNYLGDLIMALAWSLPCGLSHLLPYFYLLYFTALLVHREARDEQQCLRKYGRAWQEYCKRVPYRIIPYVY
Test: Sterol 14-reductase assay with rat liver microsomes (substrate 4,4-dimethyl-5α-cholesta-7,14-dien-3β-ol, GLC)
Format: biochemical, Sprague-Dawley rats
Settings: not given

Row | inhibition of sterol 14-reductase (in words) | Compound
1 | effectively inhibit | COc1cc2c(cc1OC)-c1c(C)c3ccc(OC)c(OC)c3c[n+]1CC2

Same assay, conditions: dissolved in DMSO; read-out: concentration of active ingredient in the assay at which 50% of inhibitory effect was observed (sterol 14-reductase)

Row | IC50 | Compound
2 | 40000 to 50000 µM | COc1cc2c(cc1OC)-c1c(C)c3ccc(OC)c(OC)c3c[n+]1CC2

Same assay, conditions: read-out: Enzyme Activity (relative in vitro activity for sterol 14-reductase, IC50 class)

Row | Compound | IC50
3 | CCC1=C2c3cc(OC)c(OC)cc3CCN2C(CC)c2c1ccc(OC)c2OC (stereo not drawn) [Compound No. 49, 8-Ethyl-13-ethyldihydropalmatine] | ≥ 100 µM
4 | CCC1c2c(ccc(OC)c2OC)C=C2c3cc4c(cc3CCN21)OCO4 (stereo not drawn) [Compound No. 28, 8-Ethyldihydroberberine] | ≥ 100 µM
5 | CCCCCCCCC1c2c(ccc(OC)c2OC)C=C2c3cc4c(cc3CCN21)OCO4 (stereo not drawn) [Compound No. 35] | ≥ 100 µM
6 | CCOC(=O)c1c2[n+](cc3c(OC)c(OC)ccc13)CCc1cc(OC)c(OC)cc1-2 [Compound No. 19, 13-Ethoxycrbonylpalmatine] | ≥ 100 µM
7 | COc1cc2c(cc1OC)-c1c(CC(=O)O)c3ccc(OC)c(OC)c3c[n+]1CC2 [Compound No. 21, 13-Carboxymethylpalmatine] | ≥ 100 µM
8 | COc1ccc2c(c1OC)C(C)N1CCc3cc4c(cc3C1=C2)OCO4 (stereo not drawn) [Compound No. 27, 8-Methyldihydroberberine] | ≥ 100 µM
9 | CCCC1c2c(ccc(OC)c2OC)C=C2c3cc4c(cc3CCN21)OCO4 (stereo not drawn) [Compound No. 29, 8-n-propyldiydroberberine] | ≥ 100 µM
10 | COc1cc2c(cc1OC)-c1c(CC3CC3)c3ccc(OC)c(OC)c3c[n+]1CC2 [Compound No. 13, 13-(cyclopropylmethyl)palmatine] | ≥ 100 µM
11 | C=CCc1c2[n+](cc3c(OC)c(OC)ccc13)CCc1cc3c(cc1-2)OCO3 [Compound No. 9, 13-Allylberberine] | ≥ 100 µM
12 | CCCCC1c2c(ccc(OC)c2OC)C=C2c3cc4c(cc3CCN21)OCO4 (stereo not drawn) [Compound No. 30, 8-n-butyldihydroberberine] | ≥ 100 µM
13 | CCCCC1c2c(ccc(OC)c2OC)C(CC)=C2c3cc(OC)c(OC)cc3CCN21 (stereo not drawn) [Compound No. 50, 8-n-butyl-13-ethyldihydropalmatine] | ≥ 100 µM
14 | COc1cc2c(cc1OC)-c1c(CCC3OCCCO3)c3ccc(OC)c(OC)c3c[n+]1CC2 [Compound No. 18, 13-(1,3-dioxane-2-yl)ethylpalmatine] | ≥ 100 µM
15 | CCOC(=O)Cc1c2[n+](cc3c(OC)c(OC)ccc13)CCc1cc(OC)c(OC)cc1-2 [Compound No. 20, 13-Ethoxycarbonylmethylpalmatine] | ≥ 100 µM
16 | Oc1cc2c(cc1O)-c1cc3ccc(O)c(O)c3c[n+]1CC2 [Compound No. 3, 2,3,9,10-Tetrahydroxyberberine] | ≥ 100 µM
17 | CCC1=C2c3cc(OC)c(OC)cc3CCN2C(C2CCCCC2=O)c2c1ccc(OC)c2OC (stereo not drawn) [Compound No. 43, 8-(cyclohexanon-2-yl)-13-ethyldihydropalmatine] | ≥ 100 µM
18 | CCC1=C2c3cc(OC)c(OC)cc3CCN2C(CC#N)c2c1ccc(OC)c2OC (stereo not drawn) [Compound No. 41, 8-Cyanomethyl-13-ethyldihydropalmatine] | ≥ 100 µM
19 | CCCCOc1cc2c(cc1OCCCC)-c1cc3ccc(OCCCC)c(OCCCC)c3c[n+]1CC2 [Compound No. 17, 2,3,9,10-Tetra-n-butoxyprotoberberine] | 10 to 100 µM
20 | CCC1c2c(ccc(OC)c2OC)C=C2c3cc(OC)c(OC)cc3CCN21 (stereo not drawn) [Compound No. 34, 8-Ethyldihydropalmatine] | ≥ 100 µM
21 | COc1cc2c(cc1OC)C1=Cc3ccc(OC)c(OC)c3C(C)N1CC2 (stereo not drawn) [Compound No. 33, 8-Methyldihydropalmatine] | ≥ 100 µM
22 | COc1ccc2c(C3CCOC3=O)c3[n+](cc2c1OC)CCc1cc2c(cc1-3)OCO2 (stereo not drawn) [Compound No. 23, 13-α-(γ-lactonyl)berberine] | ≥ 100 µM
23 | COc1ccc2c(c1OC)C(CC1CCCCC1)N1CCc3cc4c(cc3C1=C2)OCO4 (stereo not drawn) [Compound No. 31, 8-Cyclohexylmethyldihydroberberine] | ≥ 100 µM
24 | CCC1=C2c3cc(OC)c(OC)cc3CCN2C(C)c2c1ccc(OC)c2OC (stereo not drawn) [Compound No. 48, 8-Methyl-13-ethyldihydropalmatine] | ≥ 100 µM
25 | COC(=O)C(C)c1c2[n+](cc3c(OC)c(OC)ccc13)CCc1cc3c(cc1-2)OCO3 (stereo not drawn) [Compound No. 22, 13-(1-methoxycarbonylethyl)berberine] | ≥ 100 µM
26 | C=CCc1c2[n+](cc3c(O)c(O)ccc13)CCc1cc(O)c(O)cc1-2 [Compound No. 10, 2,3,9,10-Tetrahydroxy-13-allylberberine] | ≥ 100 µM
27 | COc1ccc2c(c1OC)C(C(C)C)N1CCc3cc4c(cc3C1=C2)OCO4 (stereo not drawn) [Compound No. 32, 8-i-propyldihydroberberine] | ≥ 100 µM

Further lines, results first:

Row | IC50 | Compound
28 | 10 to 100 µM | CCC1=C2c3cc(OC)c(OC)cc3CCN2C(CC(=O)CC(C)C)c2c1ccc(OC)c2OC (stereo not drawn) [Compound No. 40, 8-(4-methylpentan-2-one-1-yl)-13-ethyldihydropalmatine]
29 | ≥ 100 µM | CCOC(=O)Cc1c2[n+](cc3c(OC)c(OC)ccc13)CCc1cc3c(cc1-2)OCO3 [Compound No. 24, 13-Ethoxycarbonylmethylberberine]
30 | 10 to 100 µM | CCc1c2[n+](cc3c(O)c(O)ccc13)CCc1cc(O)c(O)cc1-2 [Compound No. 7, 2,3,9,10-Tetrahydroxy-13-ethylberberine]
31 | 10 to 100 µM | COc1ccc2c(C)c3[n+](cc2c1OC)CCc1cc(O)c(O)cc1-3 [Compound No. 2, 2,3-Dihydroxy-13-methylberberine]
32 | ≥ 100 µM | COc1ccc2c(c1OC)C(C1CC1)N1CCc3cc4c(cc3C1=C2)OCO4 (stereo not drawn) [Compound No. 36]
33 | ≥ 100 µM | COc1ccc2c(c1OC)C(CC(C)=O)N1CCc3cc4c(cc3C1=C2)OCO4 (stereo not drawn) [Compound No. 26, 8-Acetonyldihydroberberine]
34 | ≥ 100 µM | CCC1=C2c3cc(OC)c(OC)cc3CCN2C(C2CCCC2=O)c2c1ccc(OC)c2OC (stereo not drawn) [Compound No. 42, 8-(cyclopentanon-2-yl)-13-ethyldihydropalmatine]
35 | 10 to 100 µM | CCc1c2[n+](cc3c(NCCO)c(OC)ccc13)CCc1cc(OC)c(OC)cc1-2 [Compound No. 25, 9-Hydroxyethylamino-13-ethylberberine]
36 | 10 to 100 µM | Cc1c2[n+](cc3c(O)c(O)ccc13)CCc1cc(O)c(O)cc1-2 [Compound No. 4, 2,3,9,10-Tetrahydroxy-13-methylberberine]
37 | 10 to 100 µM | CCOc1cc2c(cc1OCC)C1=C(CC)c3ccc(OCC)c(OCC)c3C(CC(=O)C(C)C)N1CC2 (stereo not drawn) [Compound No. 45, 8-(3-methylbutan-2-one-1-yl)-13-ethyl-2,3,9,10-tetra ethoxydihydroprotoberberine]
38 | 10 to 100 µM | COc1cc2c(cc1OC)-c1c(CCCI)c3ccc(OC)c(OC)c3c[n+]1CC2 [Compound No. 16, 13-Iodopropylpalmatine]
39 | 10 to 100 µM | CCCc1c2[n+](cc3c(OC)c(OC)ccc13)CCc1cc(OC)c(OC)cc1-2 [Compound No. 11, 13-n-propylpalmatine]
40 | 10 to 100 µM | CCCCc1c2[n+](cc3c(OC)c(OC)ccc13)CCc1cc(OC)c(OC)cc1-2 [Compound No. 12, 13-n-butylpalmatine]
41 | 10 to 100 µM | CCC1=C2c3cc(OC)c(OC)cc3CCN2C(CC(=O)C(C)C)c2c1ccc(OC)c2OC (stereo not drawn) [Compound No. 39, 8-(3-methylbutan-2-one-1-yl)-13-ethyldihydro palmatine]
42 | 10 to 100 µM | CCOc1cc2c(cc1OCC)C1=C(CC)c3ccc(OCC)c(OCC)c3C(CC(C)=O)N1CC2 (stereo not drawn) [Compound No. 44, 8-Acetonyl-13-ethyl-2,3,9,10-tetraethoxy-dihydroprotoberberine]
